Our source for the Ki values is patent US8765940B2 (priority 2009, dated 2014).

Each structure is given as a SMILES string.

For this assay, the target named is PI3Kδ (Homo sapiens (Human), UniProt O00329). Type of assay: biochemical. Conditions: PI3Kδ Alphascreen assay. Background: Bead proximity is the source of the signal in Alpha formats.
Sequence of PI3Kδ (O00329 whole entry): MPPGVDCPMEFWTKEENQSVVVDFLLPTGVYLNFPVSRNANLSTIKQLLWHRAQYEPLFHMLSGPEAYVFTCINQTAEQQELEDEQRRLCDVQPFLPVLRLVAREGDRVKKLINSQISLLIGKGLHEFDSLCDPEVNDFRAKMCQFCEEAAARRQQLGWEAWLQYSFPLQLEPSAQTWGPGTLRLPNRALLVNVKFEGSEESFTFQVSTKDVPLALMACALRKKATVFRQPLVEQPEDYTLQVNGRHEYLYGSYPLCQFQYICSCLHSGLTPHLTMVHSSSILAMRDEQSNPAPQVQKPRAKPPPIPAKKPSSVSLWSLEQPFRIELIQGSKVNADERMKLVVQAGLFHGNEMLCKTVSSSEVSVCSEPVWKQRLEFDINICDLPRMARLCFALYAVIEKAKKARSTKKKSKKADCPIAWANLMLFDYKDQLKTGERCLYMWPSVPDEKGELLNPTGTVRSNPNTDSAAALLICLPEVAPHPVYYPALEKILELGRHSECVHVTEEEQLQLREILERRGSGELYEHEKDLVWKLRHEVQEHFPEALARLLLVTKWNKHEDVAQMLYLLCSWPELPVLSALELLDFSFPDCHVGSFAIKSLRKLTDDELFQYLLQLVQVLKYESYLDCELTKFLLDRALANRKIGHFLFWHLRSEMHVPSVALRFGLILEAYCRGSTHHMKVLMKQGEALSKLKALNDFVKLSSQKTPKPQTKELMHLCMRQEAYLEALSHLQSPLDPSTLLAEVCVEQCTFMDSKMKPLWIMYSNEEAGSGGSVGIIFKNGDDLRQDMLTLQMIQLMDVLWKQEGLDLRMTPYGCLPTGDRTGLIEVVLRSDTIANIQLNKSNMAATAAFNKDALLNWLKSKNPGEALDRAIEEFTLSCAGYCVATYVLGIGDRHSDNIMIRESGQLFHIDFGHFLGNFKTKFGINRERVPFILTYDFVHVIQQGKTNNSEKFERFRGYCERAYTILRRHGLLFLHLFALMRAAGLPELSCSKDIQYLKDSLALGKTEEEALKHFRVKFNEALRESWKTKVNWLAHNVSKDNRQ
Sequence of PI3Kδ (P27986 whole entry partner): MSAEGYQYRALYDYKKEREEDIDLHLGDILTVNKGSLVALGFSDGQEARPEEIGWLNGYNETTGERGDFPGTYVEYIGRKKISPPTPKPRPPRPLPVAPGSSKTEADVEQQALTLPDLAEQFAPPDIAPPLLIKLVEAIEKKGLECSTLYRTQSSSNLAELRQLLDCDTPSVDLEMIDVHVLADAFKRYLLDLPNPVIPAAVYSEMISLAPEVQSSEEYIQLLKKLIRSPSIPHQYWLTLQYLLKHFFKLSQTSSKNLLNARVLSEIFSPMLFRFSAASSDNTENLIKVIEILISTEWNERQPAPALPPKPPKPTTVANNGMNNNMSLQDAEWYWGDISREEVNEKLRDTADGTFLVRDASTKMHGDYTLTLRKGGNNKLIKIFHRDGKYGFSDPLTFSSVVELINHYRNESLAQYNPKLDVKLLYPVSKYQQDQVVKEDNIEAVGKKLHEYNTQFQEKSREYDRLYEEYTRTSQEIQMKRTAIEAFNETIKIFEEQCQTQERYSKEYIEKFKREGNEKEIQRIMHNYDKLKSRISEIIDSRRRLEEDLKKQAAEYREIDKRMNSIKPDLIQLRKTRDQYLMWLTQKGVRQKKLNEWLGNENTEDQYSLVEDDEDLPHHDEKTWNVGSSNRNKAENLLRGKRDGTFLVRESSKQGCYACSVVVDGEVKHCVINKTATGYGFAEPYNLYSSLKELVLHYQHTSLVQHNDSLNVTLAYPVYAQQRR
Method: A PI3K Alphascreen® assay (PerkinElmer, Waltham, Mass.) was used to measure the activity of a panel of four phosphoinositide 3-kinases: PI3Kα, PI3Kβ, PI3Kγ, and PI3Kδ. Enzyme reaction buffer was prepared using sterile water (Baxter, Deerfield, Ill.) and 50 mM Tris HCl pH 7, 14 mM MgCl2, 2 mM sodium cholate, and 100 mM NaCl. 2 mM DTT was added fresh the day of the experiment. The Alphascreen buffer was made using sterile water and 10 mM Tris HCl pH 7.5, 150 mM NaCl, 0.10% Tween 20, and 30 mM EDTA. 1 mM DTT was added fresh the day of the experiment. Compound source plates used for this assay were 384-well Greiner clear polypropylene plates containing test compounds at 5 mM and diluted 1:2 over 22 concentrations. Columns 23 and 24 contained only DMSO as these wells comprised the positive and negative controls, respectively. Source plates were replicated by transferring 0.5 uL per well into 384-well Optiplates (PerkinElmer, Waltham, Mass.).
Each PI3K isoform was diluted in enzyme reaction buffer to 2× working stocks. PI3Kα was diluted to 1.6 nM, PI3Kβ was diluted to 0.8 nM, PI3Kγ was diluted to 15 nM, and PI3Kδ was diluted to 1.6 nM. PI(4,5)P2 (Echelon Biosciences, Salt Lake City, Utah) was diluted to 10 μM and ATP was diluted to 20 μM. This 2× stock was used in the assays for PI3Kα and PI3Kβ. For assay of PI3Kγ and PI3Kδ, PI(4,5)P2 was diluted to 10 μM and ATP was diluted to 8 μM to prepare a similar 2× working stock. Alphascreen reaction solutions were made using beads from the anti-GST Alphascreen kit (PerkinElmer, Waltham, Mass.). Two 4× working stocks of the Alphascreen reagents were made in Alphascreen reaction buffer. In one stock, biotinylated-IP4 (Echelon Biosciences, Salt Lake City, Utah) was diluted to 40 nM and streptavadin-donor beads were diluted to 80 μg/mL. In the second stock, PIP3-binding protein (Echelon Biosciences, Salt Lake City, Utah) was diluted to 40 nM and anti-GST-acceptor beads were diluted to 80 μg/mL.
Using a 384-well Multidrop (Titertek, Huntsville, Ala.), 10 μL/well of 2× enzyme stock was added to columns 1-24 of the assay plates for each isoform. 10 μL/well of the appropriate substrate 2× stock (containing 20 μM ATP for the PI3Kα and β assays and containing 8 μM ATP for the PI3Kγ and δ assays) was then added to Columns 1-24 of all plates. Plates were then incubated at room temperature for 20 minutes. In the dark, 10 μL/well of the donor bead solution was added to columns 1-24 of the plates to quench the enzyme reaction. The plates were incubated at room temperature for 30 minutes. Still in the dark, 10 μL/well of the acceptor bead solution was added to columns 1-24 of the plates. The plates were then incubated in the dark for 1.5 hours. The plates were read on an Envision multimode Plate Reader (PerkinElmer, Waltham, Mass.) using a 680 nm excitation filter and a 520-620 nm emission filter.
A word on the Ki: it is a dissociation constant, usually derived from enzyme kinetics or from competition with a known ligand. `Cc1nc2ccccc2c(N2CC3(CCOCC3)c3ccc(N4CCOCC4)cc32)c1C` [1-(2,3-dimethyl-4-quinolinyl)-6-(4-morpholinyl)-1,2,2′,3′,5′,6′-hexahydrospiro[indole-3,4′-pyran]] had a Ki of 0.45 µM.

The compound `Cc1c(-c2ccccc2)nc2ccccc2c1N1CC2(CCOCC2)c2ccc(N3CCOCC3)cc21` [1-(3-methyl-2-phenyl-4-quinolinyl)-6-(4-morpholinyl)-1,2,2′,3′,5′,6′-hexahydrospiro[indole-3,4′-pyran]] gave a Ki of 0.0913 µM. `Cc1c(N2CCCC2=O)nc2cc(F)cc(F)c2c1N1CC(C)(C)c2ncc(N3CCOCC3)cc21` [1-(4-(3,3-dimethyl-6-(4-morpholinyl)-2,3-dihydro-1H-pyrrolo[3,2-b]pyridin-1-yl)-5,7-difluoro-3-methyl-2-quinolinyl)-2-pyrrolidinone] registered a Ki of 0.00154 µM. As for `Cc1c(-c2ccccn2)nc2cc(F)cc(F)c2c1N1CC2(CCOCC2)c2ccc(N3CCOCC3)cc21` [1-(5,7-difluoro-3-methyl-2-(2-pyridinyl)-4-quinolinyl)-6-(4-morpholinyl)-1,2,2′,3′,5′,6′-hexahydrospiro[indole-3,4′-pyran]], the figure is 0.0211 µM.

As to `Cc1c(-n2ccccc2=O)nc2cc(F)cc(F)c2c1N1CC2(CCOCC2)c2ccc(N3CCOCC3)cc21` [1-(5,7-difluoro-3-methyl-4-(6-(4-morpholinyl)-2′,3′,5′,6′-tetrahydrospiro[indole-3,4′-pyran]-1(2H)-yl)-2-quinolinyl)-2(1H)-pyridinone], the affinity, expressed as Ki, was 0.00464 µM. As for `Cc1c(N2CCC2=O)nc2cc(F)cc(F)c2c1N1CC2(CCOCC2)c2ncc(N3CCOCC3)cc21` [1-(5,7-difluoro-3-methyl-4-(6′-(4-morpholinyl)-2,3,5,6-tetrahydrospiro[pyran-4,3′-pyrrolo[3,2-b]pyridin]-1′(2′H)-yl)-2-quinolinyl)-2-azetidinone], the figure is 0.0023 µM; as for `Cc1c(N2CCCCC2=O)nc2cc(F)cc(F)c2c1N1CC2(CCOCC2)c2ncc(N3CCOCC3)cc21` [1-(5,7-difluoro-3-methyl-4-(6′-(4-morpholinyl)-2,3,5,6-tetrahydrospiro[pyran-4,3′-pyrrolo[3,2-b]pyridin]-1′(2′H)-yl)-2-quinolinyl)-2-piperidinone], 0.00551 µM; as for `Cc1c(N2CCCC2=O)nc2cc(F)cc(F)c2c1N1CC2(CCOCC2)c2ncc(N3CCOCC3)cc21` [1-(5,7-difluoro-3-methyl-4-(6′-(4-morpholinyl)-2,3,5,6-tetrahydrospiro[pyran-4,3′-pyrrolo[3,2-b]pyridin]-1′(2′H)-yl)-2-quinolinyl)-2-pyrrolidinone], 0.00236 µM. For `Cc1c(N2CC(C)(C)CC2=O)nc2cc(F)cc(F)c2c1N1CC2(CCOCC2)c2ncc(N3CCOCC3)cc21` [1-(5,7-difluoro-3-methyl-4-(6′-(4-morpholinyl)-2,3,5,6-tetrahydrospiro[pyran-4,3′-pyrrolo[3,2-b]pyridin]-1′(2′H)-yl)-2-quinolinyl)-4,4-dimethyl-2-pyrrolidinone], the Ki turned out to be 0.00224 µM. The compound `Cc1c(N2CC(C)(C)CCC2=O)nc2cc(F)cc(F)c2c1N1CC2(CCOCC2)c2ncc(N3CCOCC3)cc21` [1-(5,7-difluoro-3-methyl-4-(6′-(4-morpholinyl)-2,3,5,6-tetrahydrospiro[pyran-4,3′-pyrrolo[3,2-b]pyridin]-1′(2′H)-yl)-2-quinolinyl)-5,5-dimethyl-2-piperidinone] displayed a Ki of 0.0027 µM. As for `Cc1c(-c2ccccn2)nc2cccc(F)c2c1N1CCS(=O)(=O)c2ncc(N3CCOCC3)cc21` [1-(5-fluoro-3-methyl-2-(2-pyridinyl)-4-quinolinyl)-7-(4-morpholinyl)-2,3-dihydro-1H-pyrido[2,3-b][1,4]thiazine 4,4-dioxide], the figure is 0.0129 µM; as for `Cc1nc2ccc(Cl)cc2c(-n2ccc3c(O)cc(-c4cn[nH]c4)cc32)c1C` [1-(6-chloro-2,3-dimethyl-4-quinolinyl)-6-(1H-pyrazol-4-yl)-1H-indol-4-ol], 4.11 µM.

Take `Cc1nc2ccc(Cl)cc2c(-n2cc(C#N)c3ccc(-c4cn[nH]c4)cc32)c1C` [1-(6-chloro-2,3-dimethyl-4-quinolinyl)-6-(1H-pyrazol-4-yl)-1H-indole-3-carbonitrile]: the Ki is 2.11 µM. As for `Cc1nc2ccc(Cl)cc2c(-n2ccc3c(C#N)cc(-c4cn[nH]c4)cc32)c1C` [1-(6-chloro-2,3-dimethyl-4-quinolinyl)-6-(1H-pyrazol-4-yl)-1H-indole-4-carbonitrile], the Ki amounted to 1.08 µM. As for `Cc1nc2ccc(Cl)cc2c(N2CC3(CCOCC3)c3ccc(N4CCOCC4)cc32)c1C` [1-(6-chloro-2,3-dimethyl-4-quinolinyl)-6-(4-morpholinyl)-1,2,2′,3′,5′,6′-hexahydrospiro[indole-3,4′-pyran]], the figure is 0.073 µM; as for `Cc1nc2ccc(Cl)cc2c(-n2ccc3c(C#N)cc(N4CCOCC4)cc32)c1C` [1-(6-chloro-2,3-dimethyl-4-quinolinyl)-6-(4-morpholinyl)-1H-indole-4-carbonitrile], 0.153 µM. `Cc1nc2ccc(Cl)cc2c(-n2ccc3c(C#N)cc(-c4ccncc4)cc32)c1C` [1-(6-chloro-2,3-dimethyl-4-quinolinyl)-6-(4-pyridinyl)-1H-indole-4-carbonitrile]: affinity was put at a Ki of 1.48 µM. As for `COc1cc2nc(C)c(C)c(N3CC4(CCOCC4)c4ccc(C#N)cc43)c2cc1Cl` [1-(6-chloro-7-methoxy-2,3-dimethyl-4-quinolinyl)-1,2,2′,3′,5′,6′-hexahydrospiro[indole-3,4′-pyran]-6-carbonitrile], the figure is 7.5 µM. `Cc1c(-c2ccccc2F)nc2cc(Cl)ccc2c1N1CC2(CCOCC2)c2ccc(N3CCOCC3)cc21` [1-(7-chloro-2-(2-fluorophenyl)-3-methyl-4-quinolinyl)-6-(4-morpholinyl)-1,2,2′,3′,5′,6′-hexahydrospiro[indole-3,4′-pyran]]: affinity was put at a Ki of 0.57 µM. As for `Cc1c(-c2ccccc2F)nc2cc(F)ccc2c1N1CC2(CCOCC2)c2ccc(N3CCOCC3)cc21` [1-(7-fluoro-2-(2-fluorophenyl)-3-methyl-4-quinolinyl)-6-(4-morpholinyl)-1,2,2′,3′,5′,6′-hexahydrospiro[indole-3,4′-pyran]], the figure is 0.0254 µM; as for `COc1cccc(-c2nc3cc(F)ccc3c(N3CC4(CCOCC4)c4ccc(N5CCOCC5)cc43)c2C)n1` [1-(7-fluoro-2-(6-methoxy-2-pyridinyl)-3-methyl-4-quinolinyl)-6-(4-morpholinyl)-1,2,2′,3′,5′,6′-hexahydrospiro[indole-3,4′-pyran]], 0.0688 µM. Then `Cc1c(-c2ccccc2S(C)(=O)=O)nc2cc(F)ccc2c1N1CC2(CCOCC2)c2ccc(N3CCOCC3)cc21` [1-(7-fluoro-3-methyl-2-(2-(methylsulfonyl)phenyl)-4-quinolinyl)-6-(4-morpholinyl)-1,2,2′,3′,5′,6′-hexahydrospiro[indole-3,4′-pyran]], with 0.0102 µM; and `Cc1ncccc1-c1nc2cc(F)ccc2c(N2CC3(CCOCC3)c3ccc(N4CCOCC4)cc32)c1C` [1-(7-fluoro-3-methyl-2-(2-methyl-3-pyridinyl)-4-quinolinyl)-6-(4-morpholinyl)-1,2,2′,3′,5′,6′-hexahydrospiro[indole-3,4′-pyran]], with 0.0145 µM; and `Cc1c(-c2ccccn2)nc2cc(F)ccc2c1N1CC(C)(C)c2nc(C#N)c(N3CCOCC3)cc21` [1-(7-fluoro-3-methyl-2-(2-pyridinyl)-4-quinolinyl)-3,3-dimethyl-6-(4-morpholinyl)-2,3-dihydro-1H-pyrrolo[3,2-b]pyridine-5-carbonitrile], with 0.0495 µM. With `Cc1c(-c2ccccn2)nc2cc(F)ccc2c1N1CC2(CCOCC2)c2ccc(N3CCOCC3)cc21` [1-(7-fluoro-3-methyl-2-(2-pyridinyl)-4-quinolinyl)-6-(4-morpholinyl)-1,2,2′,3′,5′,6′-hexahydrospiro[indole-3,4′-pyran]], affinity was put at a Ki of 0.0182 µM. `Cc1c(-c2ccccn2)nc2cc(F)ccc2c1N1CC2(CCS(=O)(=O)CC2)c2ccc(N3CCOCC3)cc21` [1-(7-fluoro-3-methyl-2-(2-pyridinyl)-4-quinolinyl)-6-(4-morpholinyl)-1,2,2′,3′,5′,6′-hexahydrospiro[indole-3,4′-thiopyran]-1′,1′-dioxide] registered a Ki of 0.0644 µM. Then `Cc1c(-c2ccccn2)nc2cc(F)ccc2c1N1CC2(CS(=O)(=O)C2)c2ccc(N3CCOCC3)cc21` [1-(7-fluoro-3-methyl-2-(2-pyridinyl)-4-quinolinyl)-6-(4-morpholinyl)-1,2-dihydrospiro[indole-3,3′-thietane] 1′,1′-dioxide], with 0.0805 µM; and `Cc1c(-c2cccnc2)nc2cc(F)ccc2c1N1CC2(CCOCC2)c2ccc(N3CCOCC3)cc21` [1-(7-fluoro-3-methyl-2-(3-pyridinyl)-4-quinolinyl)-6-(4-morpholinyl)-1,2,2′,3′,5′,6′-hexahydrospiro[indole-3,4′-pyran]], with 0.0475 µM.

`Cc1c(N2CCCCC2=O)nc2cc(F)ccc2c1N1CC2(CCOCC2)c2ncc(N3CCOCC3)cc21` [1-(7-fluoro-3-methyl-4-(6′-(4-morpholinyl)-2,3,5,6-tetrahydrospiro[pyran-4,3′-pyrrolo[3,2-b]pyridin]-1′(2′H)-yl)-2-quinolinyl)-2-piperidinone]: the affinity corresponds to a Ki of 0.00162 µM.

The compound `Cc1c(N2CCOC(C)(C)C2)nc2cc(F)cc(F)c2c1N1CC2(CCOCC2)c2ncc(N3CCOCC3)cc21` [1′-(2-(2,2-dimethyl-4-morpholinyl)-5,7-difluoro-3-methyl-4-quinolinyl)-6′-(4-morpholinyl)-1′,2,2′,3,5,6-hexahydrospiro[pyran-4,3′-pyrrolo[3,2-b]pyridine]] returned a Ki of 0.0054 µM. As for `Cc1c(-c2cc(F)cc(F)c2)nc2cnccc2c1N1CC2(CCOCC2)c2ncc(N3CCOCC3)cc21` [1′-(2-(3,5-difluorophenyl)-3-methyl-1,7-naphthyridin-4-yl)-6′-(4-morpholinyl)-1′,2,2′,3,5,6-hexahydrospiro[pyran-4,3′-pyrrolo[3,2-b]pyridine]], affinity was put at a Ki of 0.0134 µM. Compound `Cc1c(-c2cc(F)cc(F)c2)nc2ncccc2c1N1CC2(CCOCC2)c2ncc(N3CCOCC3)cc21` [1′-(2-(3,5-difluorophenyl)-3-methyl-1,8-naphthyridin-4-yl)-6′-(4-morpholinyl)-1′,2,2′,3,5,6-hexahydrospiro[pyran-4,3′-pyrrolo[3,2-b]pyridine]] gave a Ki of 0.0282 µM.
